Values after ≈ are worked out from the molar mass of the structure shown.
Assays:
[1] = Apparent permeability from apical to basolateral side in human Caco2 cells at 10 uM after 1 hr by LC-MS/MS analysis; format: ADME, cell-based; details: Caco-2
Colon = experiment: Drug uptake in C57BL6 mouse colon at 20 mg/kg, po after 8 hrs by LC-MS/MS; format: ADME, organism-based; details: in vivo
[2] = Apparent permeability from basolateral to apical side in human Caco2 cells at 10 uM after 1 hr by LC-MS/MS analysis; format: ADME, cell-based; details: Caco-2
[3] = Cmax in C57BL6/J mouse plasma at 20 mg/kg, po by LC-MS/MS analysis; format: ADME, organism-based; design: dose 20 mg/kg, route oral
[4] = Apparent permeability from basolateral to apical side in human Caco2 cells assessed as drug recovery at 10 uM after 1 hr by LC-MS/MS analysis; format: ADME, cell-based; details: Caco-2, read-out: Drug recovery
[5] = Cmax in C57BL6/J mouse liver at 20 mg/kg, po by LC-MS/MS analysis; format: ADME, organism-based; design: dose 20 mg/kg, route oral
[6] = Apparent permeability from apical to basolateral side in human Caco2 cells assessed as drug recovery at 10 uM after 1 hr by LC-MS/MS analysis; format: ADME, cell-based; details: Caco-2, read-out: Drug recovery
[7] = AUC in C57BL6/J mouse at 20 mg/kg, po by LC-MS/MS analysis; format: ADME, organism-based; details: in vivo
in vivo = details: C57BL6/J, mouse, faeces, po, 20 mg/kg
physchem = details: PBS/MeOH
[8] = Half life in CD-1 mouse liver microsomes at 1 uM in presence of NADPH by LC-MS/MS analysis; format: ADME, microsome
Ileum = experiment: Drug uptake in C57BL6 mouse ileum at 20 mg/kg, po after 8 hrs by LC-MS/MS; format: ADME, organism-based; details: in vivo
[9] = Tmax in C57BL6/J mouse at 20 mg/kg, po by LC-MS/MS analysis; format: ADME, organism-based; details: in vivo
[10] = Half life in C57BL6/J mouse at 20 mg/kg, po by LC-MS/MS analysis; format: ADME, organism-based; details: in vivo
[11] = 1-octanol/phosphate buffer solution partition coefficient, log D of the compound at pH 7.4 for 2 hrs by LC-MS/MS method; format: physicochemical
[12] = Cmax in C57BL6/J mouse gallbladder at 20 mg/kg, po by LC-MS/MS analysis; format: ADME, organism-based, Gall bladder; design: dose 20 mg/kg, route oral
[13] = Apparent permeability from apical to basolateral side in human Caco2 cells assessed as drug recovery at 5 uM after 1 hr by LC-MS/MS analysis; format: ADME, cell-based; details: Caco-2, read-out: Drug recovery
[14] = Apparent permeability from basolateral to apical side in human Caco2 cells at 5 uM after 1 hr by LC-MS/MS analysis; format: ADME, cell-based; details: Caco-2
[15] = Apparent permeability from basolateral to apical side in human Caco2 cells assessed as drug recovery at 5 uM after 1 hr by LC-MS/MS analysis; format: ADME, cell-based; details: Caco-2, read-out: Drug recovery
[16] = Apparent permeability from apical to basolateral side in human Caco2 cells at 5 uM after 1 hr by LC-MS/MS analysis; format: ADME, cell-based; details: Caco-2

In the case of `COc1ccc(N(C)c2cnc(SCc3c(F)cc(OCCCS(=O)(=O)O)cc3F)n2-c2ccc(F)cc2)cc1OC.N`, the Papp A→B at 1 h, 10 µM [1] is reported as 0.031 ×10⁻⁶ cm/s, the Drug uptake (Colon) is reported as “Active” and the Papp B→A at 1 h, 10 µM [2] is reported as 19 ×10⁻⁶ cm/s. The Cmax [3] was 102 nM, the recovery at 1 h, 10 µM [4] was 102% and the Cmax [5] was 385 nM. It also gave a recovery at 1 h, 10 µM [6] of 80.1%, an AUC [7] of 96.2 ng·h/mL and a dose excreted at 24 h (in vivo) of 100%. The solubility at 24 h (physchem) was > 200 µM, the half-life at 1 µM [8] was 1.2 min and the Drug uptake (Ileum) was “Active”. It also gave a Tmax [9] of 45 min, a half-life [10] of 317 min and a logD at 2 h [11] of 0.8. It also gave a Cmax [12] of 11000 nM.

`COc1ccc(N(C)c2cnc(SCc3c(F)cc(OCCC[N+]45CCN(CC4)CC5)cc3F)n2-c2ccc(F)cc2)cc1OC.O=C[O-]` gave a Papp A→B at 1 h, 10 µM [1] of 0.016 ×10⁻⁶ cm/s, a Papp B→A at 1 h, 10 µM [2] of 0.22 ×10⁻⁶ cm/s and a recovery at 1 h, 10 µM [4] of 99.6%. It also gave a recovery at 1 h, 10 µM [6] of 69.3% and a logD at 2 h [11] of 0.9.

`COc1ccc(N(C)c2cnc(SCc3c(F)cccc3F)n2-c2ccc(F)cc2)cc1OC` showed a recovery at 1 h, 5 µM [13] of 84.4%, a Papp B→A at 1 h, 5 µM [14] of 5.47 ×10⁻⁶ cm/s and a recovery at 1 h, 5 µM [15] of 106%. For the same molecule, the solubility at 24 h (physchem) was 6.3 µM (≈ 3.06 µg/mL), the half-life at 1 µM [8] was 0.7 min and the Papp A→B at 1 h, 5 µM [16] was 5.32 ×10⁻⁶ cm/s. The logD at 2 h [11] was 3.5.

Molecule `COc1ccc(N(C)c2cnc(SCc3c(F)cc(C#CC[N+](C)(C)C)cc3F)n2-c2ccc(F)cc2)cc1OC.[I-]` has a Papp A→B at 1 h, 10 µM [1] of 0.08 ×10⁻⁶ cm/s and a Papp B→A at 1 h, 10 µM [2] of 0.24 ×10⁻⁶ cm/s.

`COc1ccc(N(C)c2cnc(SCc3c(F)cc(C#CC[N+](C)(C)C)cc3F)n2-c2ccc(F)cc2)cc1OC.O=C[O-]` gave a Cmax [3] of 100 nM, a recovery at 1 h, 10 µM [4] of 93.4% and a recovery at 1 h, 10 µM [6] of 69.8%. For the same molecule, the AUC [7] was 48.5 ng·h/mL, the dose excreted at 24 h (in vivo) was 88% and the Tmax [9] was 15 min. It also gave a half-life [10] of 97 min, a logD at 2 h [11] of 1 and a Cmax [12] of 9030 nM.
